Assays:
human CCR2 = target: T1, human CCR2 (Homo sapiens, UniProt P41597); assay: Functional Ca2+ release test (B-1); format: cell-based; details: Chem-1 cell line transfected with human CCR2; 50% inhibition of the MCP-1 effect, MCP-1 at EC50 (about 5 nM); in some cases means of several determinations
T1 construct: host or cells: Chem-1 cell line
T1 sequence (P41597 1-360 isoform P41597-2): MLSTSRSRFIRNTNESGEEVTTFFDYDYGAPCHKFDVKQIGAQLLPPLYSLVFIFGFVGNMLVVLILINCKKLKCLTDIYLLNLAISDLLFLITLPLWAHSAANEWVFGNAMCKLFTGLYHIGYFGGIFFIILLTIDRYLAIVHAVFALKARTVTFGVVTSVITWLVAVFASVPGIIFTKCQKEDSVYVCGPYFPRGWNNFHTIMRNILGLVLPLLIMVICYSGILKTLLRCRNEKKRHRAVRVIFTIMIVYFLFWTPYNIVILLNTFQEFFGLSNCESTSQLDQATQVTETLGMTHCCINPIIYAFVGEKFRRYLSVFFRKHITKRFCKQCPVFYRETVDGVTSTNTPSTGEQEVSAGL
Method: The antagonistic action of test substances on CCR2 was determined in a functional Ca^2+ release test. Binding of CCL2/MCP-1 to CCR2 leads to a change in the conformation of the receptor resulting in Gi/Gq protein activation and intracellular signal cascade. This involves, inter alia, an intracellular Ca^2+ release. The test cell used was a Chem-1 cell line transfected with human CCR2 (ChemiSCREEN™ CCR2B Calcium-Optimized FLIPR Cell Line, Merck Millipore).
(§1) The test substances were dissolved in dimethyl sulphoxide (DMSO) at a concentration of 10 mM and serially diluted with DMSO in steps of 1:3.16 for a 10-point dose/activity analysis. According to the desired test concentrations, the substances were pre-diluted in Tyrode with 2 mM CaCl2 and 0.05% BSA.
The cells, cultivated in DMEM high glucose [supplemented with 10% FCS, 1 mM pyruvate, 15 mM HEPES, 500 μg/ml geniticin and non-essential amino acids (NEAA)], were sown at 5000 cells/25 μl in 384 well, μCLEAR/black cell culture plates from Greiner (#781092) and incubated at 37° C. for 24 h. The sowing medium consisted of DMEM high glucose [supplemented with 5% FCS, 1 mM pyruvate, 15 mM HEPES, 50 U/ml penicillin, 50 μg/ml streptomycin and non-essential amino acids (NEAA)]. The medium was then removed and the cells were charged for 60 min at 37° C. with Fluo-4 dye [25 μl Tyrode with 3 μM Fluo-4 AM (1 mM DMSO stock solution), 0.4 mg/ml Brilliant Black, 2.5 mM probenicid, 0.03% Pluronic F-127]. The cells were pre-incubated for 10 min with 10 μl of the test substances diluted in buffer, and 20 μl of agonist solution (MCP-1 in Tyrode with 0.05% BSA) were then added. MCP-1 was employed at the concentration which corresponds to the EC50 which had been determined in a preliminary test (usually about 5 nM). Ca^2+ release was monitored over a period of 120 s in 1 s increments in a proprietary fluorescence imaging reader. The molar concentration of the test substance which caused 50% inhibition of the MCP-1 effect (IC50) was determined using a 4-parameter logistic function (Hill function).

murine CCR2 = target: T2, murine CCR2 (Mus musculus, UniProt P51683); assay: Functional β-arrestin recruiting test with murine MCP-1 (B-2b); format: cell-based; details: U2OS β-arrestin cell line transfected with murine CCR2; agonist murine MCP-1; in some cases means of several determinations
T2 construct: host or cells: U2OS β-arrestin cell line
Method: The antagonistic action of test substances on CCR2 was determined in a β-arrestin test. The PathHunter β-arrestin GPCR test system (DiscoveRx Corporation, Ltd.) is a cell-based functional method for detecting binding of β-arrestin to an activated receptor. The molecular basis is a […] complementation measured by the enzymatic conversion of a chemiluminescent substrate. The test cell used was a U2OS β-arrestin cell line transfected with murine CCR2 (93-0543C3, DiscoveRx Corporation, Ltd.).
as §1
The cells, cultivated in MEM Eagle (supplemented with 10% FCS, 50 U/ml of penicillin, 50 μg/ml of streptomycin, 250 μg/ml of hygromycin and 500 μg/ml of geniticin), were sown at 2000 cells/25 μl in 384 well, μCLEAR/black cell culture plates from Greiner (#781092) and incubated at 37° C. for 24 h. The sowing medium consisted of Opti-MEM (supplemented with 1% FCS, 50 U/ml of penicillin and 50 μg/ml of streptomycin). The cells were pre-incubated for 10 min with 10 μl of the test substances diluted in buffer, and 10 μl of agonist solution [human MCP-1 (PeproTech, #300-04) in Tyrode with 0.05% BSA) were then added. The human MCP-1 was employed at the concentration which corresponds to the EC50 which had been determined in a preliminary test (usually about 3 nM). After 90 min of incubation at 37° C., the solution was removed, and recruitment of β-arrestin to CCR2 was detected with the aid of the PathHunter detection reagent (93-001, DiscoveRx Corporation, Ltd.) according to the instructions of the manufacturer. Luminescence was measured after an incubation time of 60 min using a proprietary luminescence imaging measuring instrument. The molar concentration of the test substance which caused 50% inhibition of the MCP-1 effect (IC50) was determined using a 4-parameter logistic function (Hill function).
The test was carried out in a manner identical to that described above under B-2a, but using murine MCP-1 (PeproTech, #250-10) as agonist.

T2 sequence (P51683 whole entry): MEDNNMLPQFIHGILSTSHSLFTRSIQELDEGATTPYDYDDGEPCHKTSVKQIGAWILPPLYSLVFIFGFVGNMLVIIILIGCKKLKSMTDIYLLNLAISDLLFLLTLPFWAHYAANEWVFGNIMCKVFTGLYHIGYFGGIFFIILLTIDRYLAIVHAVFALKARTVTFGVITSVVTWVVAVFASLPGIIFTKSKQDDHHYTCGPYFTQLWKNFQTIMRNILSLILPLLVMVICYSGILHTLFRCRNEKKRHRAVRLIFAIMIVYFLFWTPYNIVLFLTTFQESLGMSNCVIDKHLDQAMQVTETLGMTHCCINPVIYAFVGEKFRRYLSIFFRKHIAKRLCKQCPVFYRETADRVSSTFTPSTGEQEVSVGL

| Structure (SMILES) | IC50 (human CCR2) [µM] | IC50 (murine CCR2) [µM] |
| --- | --- | --- |
| Nc1ccnc(-c2nc(C(F)(F)F)c(Oc3ccc(Cl)c(Cl)c3)c(=O)[nH]2)c1 [Example 128, 2-(4-aminopyridin-2-yl)-5-(3,4-dichlorophenoxy)-6-(trifluoromethyl)pyrimidin-4(3H)-one] | 0.0032 | 0.36 |
| Cn1nc(-c2nc(C(F)(F)F)c(Oc3ccc(Cl)c(Cl)c3)c(=O)[nH]2)c2cccnc21 [Example 205] | 0.026 | 2.49 |
| O=c1[nH]c(-n2ncc3ncccc32)nc(C(F)(F)F)c1Oc1ccc(Cl)c(Cl)c1 [Example 258] | 0.0099 | 0.949 |
| C[S+]([O-])c1cccnc1-c1nc(C(F)(F)F)c(Oc2ccc(Cl)c(Cl)c2)c(=O)[nH]1 (centres unmarked) [Example 267, 5-(3,4-Dichlorophenoxy)-2-[3-(methylsulphinyl)pyridin-2-yl]-6-(trifluoromethyl)pyrimidin-4(3H)-one] | 0.103 | 0.679 |
| Cn1nc(-c2nc(C(F)(F)F)c(Oc3ccc(Cl)c(C(F)(F)F)c3)c(=O)[nH]2)c2c(Cl)cccc21 [Example 142, 2-(4-chloro-1-methyl-1H-indazol-3-yl)-5-[4-chloro-3-(trifluoromethyl)phenoxy]-6-(trifluoromethyl)pyrimidin-4(3H)-one] | 0.0033 | 0.246 |
| COc1cc(OC)nc(-c2nc(C(F)(F)F)c(Oc3ccc(Cl)c(C(F)(F)F)c3)c(=O)[nH]2)n1 [Example 122, 5-[4-chloro-3-(trifluoromethyl)phenoxy]-4′,6′-dimethoxy-6-(trifluoromethyl)-2,2′-bipyrimidin-4(3H)-one] | 0.0006 | 0.164 |
| Cc1cc(-c2nc(C(F)(F)F)c(Oc3ccc(Cl)c(C(F)(F)F)c3)c(=O)[nH]2)nn1C [Example 170, 5-[4-chloro-3-(trifluoromethyl)phenoxy]-2-(1,5-dimethyl-1H-pyrazol-3-yl)-6-(trifluoromethyl)pyrimidin-4(3H)-one] | 0.0007 | 0.084 |
| COc1csnc1-c1nc(C(F)(F)F)c(Oc2ccc(Cl)c(C(F)(F)F)c2)c(=O)[nH]1 [Example 238] | 0.0009 | 0.039 |
| O=c1[nH]c(-c2ccnnc2)nc(C(F)(F)F)c1Oc1ccc(Cl)c(C(F)(F)F)c1 [Example 129, 5-[4-chloro-3-(trifluoromethyl)phenoxy]-2-(pyridazin-4-yl)-6-(trifluoromethyl)pyrimidin-4(3H)-one] | 0.222 | 2.71 |
| O=c1[nH]c(-c2ncccc2OC(F)(F)F)nc(C(F)(F)F)c1Oc1ccc(Cl)c(C(F)(F)F)c1 [Example 204] | 0.0092 | 0.282 |
| CCCc1cc(-c2nc(C(F)(F)F)c(Oc3ccc(Cl)c(C(F)(F)F)c3)c(=O)[nH]2)no1 [Example 216] | 0.0046 | 1.32 |
| CC(=O)Nc1ccc2c(-c3nc(C(F)(F)F)c(Oc4ccc(Cl)c(C(F)(F)F)c4)c(=O)[nH]3)noc2c1 [Example 209] | 0.022 | 0.368 |
| COc1ccc(-c2nc(C(F)(F)F)c(Oc3ccc(Cl)c(C(F)(F)F)c3)c(=O)[nH]2)nc1 [Example 119, 5-[4-chloro-3-(trifluoromethyl)phenoxy]-2-(5-methoxypyridin-2-yl)-6-(trifluoromethyl)pyrimidin-4(3H)-one] | 0.0004 | 0.185 |
| O=c1[nH]c(-c2cc(C3CC3)on2)nc(C(F)(F)F)c1Oc1ccc(Cl)c(Cl)c1 [Example 219] | 0.0072 | 1.04 |
| O=c1[nH]c(-c2ccon2)nc(C(F)(F)F)c1Oc1ccc(Cl)c(Cl)c1 [Example 229] | 0.0005 | 0.044 |
| Cc1cc(Oc2c(C(F)(F)F)nc(-c3cc[nH]n3)[nH]c2=O)ccc1Cl [Example 223] | 0.0001 | 0.021 |
| O=c1[nH]c(-c2cnccn2)nc(C(F)(F)F)c1Oc1ccc(Cl)c(Cl)c1 [Example 127, 5-(3,4-dichlorophenoxy)-2-(pyrazin-2-yl)-6-(trifluoromethyl)pyrimidin-4(3H)-one] | 0.0021 | 0.372 |
| COc1c[nH]nc1-c1nc(C(F)(F)F)c(Oc2ccc(Cl)c(Cl)c2)c(=O)[nH]1 [Example 213] | 0.0006 | 0.049 |
| COc1nccnc1-c1nc(C(F)(F)F)c(Oc2ccc(Cl)c(C(F)(F)F)c2)c(=O)[nH]1 [Example 116] | 0.0003 | 0.037 |
| Nc1ccc(-c2nc(C(F)(F)F)c(Oc3ccc(Cl)c(Cl)c3)c(=O)[nH]2)nc1 [Example 123, 2-(5-aminopyridin-2-yl)-5-(3,4-dichlorophenoxy)-6-(trifluoromethyl)pyrimidin-4(3H)-one] | 0.0006 | 0.028 |
| Cc1cc(-c2nc(C(F)(F)F)c(Oc3ccc(Cl)c(Cl)c3)c(=O)[nH]2)no1 [Example 231] | 0.0001 | 0.249 |
| COc1conc1-c1nc(C(F)(F)F)c(Oc2ccc(Cl)c(Cl)c2)c(=O)[nH]1 [Example 179, 5-(3,4-dichlorophenoxy)-2-(4-methoxy-1,2-oxazol-3-yl)-6-(trifluoromethyl)pyrimidin-4(3H)-one] | 0.0018 | 0.073 |
| Cn1nc(-c2nc(C(F)(F)F)c(Oc3ccc(Cl)c(Cl)c3)c(=O)[nH]2)c2c(Cl)cccc21 [Example 141, 2-(4-chloro-1-methyl-1H-indazol-3-yl)-5-(3,4-dichlorophenoxy)-6-(trifluoromethyl)pyrimidin-4(3H)-one] | 0.0051 | 0.274 |
| CN(C)c1ccc(-c2nc(C(F)(F)F)c(Oc3ccc(Cl)c(C(F)(F)F)c3)c(=O)[nH]2)nn1 [Example 201] | 0.0007 | 0.3 |
| CC(C)(C)Sc1cccnc1-c1nc(C(F)(F)F)c(Oc2ccc(Cl)c(Cl)c2)c(=O)[nH]1 [Example 189] | 0.053 | 1.03 |
| CC(C)(C)Oc1cccc(-c2nc(C(F)(F)F)c(Oc3ccc(Cl)c(Cl)c3)c(=O)[nH]2)n1 [Example 146, 2-(6-tent-butoxypyridin-2-yl)-5-(3,4-dichlorophenoxy)-6-(trifluoromethyl)pyrimidin-4(3H)-one] | 0.404 | 3.5 |
| O=c1[nH]c(-c2cccnc2)nc(C(F)(F)F)c1Cc1ccc(Cl)c(C(F)(F)F)c1 [Example 165, 5-[4-chloro-3-(trifluoromethyl)benzyl]-2-(pyridin-3-yl)-6-(trifluoromethyl)pyrimidin-4(3H)-one] | 0.014 | 3.37 |
| COc1ccc(-c2nc(C(F)(F)F)c(Oc3ccc(Cl)c(Cl)c3)c(=O)[nH]2)nc1 [Example 148, 5-(3,4-dichlorophenoxy)-2-(5-methoxypyridin-2-yl)-6-(trifluoromethyl)pyrimidin-4(3H)-one] | 0.042 | 0.454 |
